We go through 2 molecules from patent publication US10610562B2, “Instant water soluble bioactive dietary phytonutrients composition of spice/herb extracts and a process for its preparation” (AKAY FLAVOURS & AROMATICS PVT. LTD, priority 2014, dated 2020).

In experiment [1] the test system is carrageenan induced paw oedema. Description: In vivo anti-inflammatory potential, carrageenan induced paw oedema model. The settings on record: reference drug at dose 50 mg/kg body weight. Set-up: species or system Swiss albino mice. As to the method:
The animals for experimental model were taken from small breeding station of Amala Cancer Research Centre, Thrissur (Registration No. 149/99/CPCSEA) and […] Institute of Medical Science, Kochi (Registration No. 527/02/a/CPCSEA). The animals were kept in air-conditioned room at 22±2° C. and relative humidity […] with 12 hours day and light cycle, fed with normal mouse chow, a natural ingredient diet (Sai Feeds, India) and water ad libitum. All animal experiments were performed according to the rules and regulations of the Committee for the Purpose of Control and Supervision of Experiments on Animals (CPCSEA), Government of India. Five groups each contained six Male Swiss albino mice (25-30 g) in each group were injected with 25 μL of 1% suspension of carrageenan in 0.1% carboxy methylcellulose (CMC) sub-planetary into right hind paw. Paw volume was measured at various time intervals such as, paw volume before inflammation induction, then for 1, 2, 3, 4, 5 and 24 hours after carrageenan administration using a vernier calliper. Clove extract at doses 25, 50 and 100 mg/kg body weight was administered (orally) 1 hour prior to carrageenan injection. […] The percentages of inhibition were calculated according to the following formula. […] Where, VT-Paw oedema at various time intervals and Vo-Initial paw oedema [table]
(Carrageenan injected into the paw causes an acute inflammation.)

Experiment [2] can be described thus: Superoxide radical anion scavenging activity. It is filed as biochemical. How it is done:
McCord and Fridovich, (1969), measure super oxide radical anion scavenging activity. Briefly, 1 mg/mL spice extract stock solution was prepared in distilled water. The reaction mixture contained 200 μL KCN [dissolved in EDTA (6 mM)], 50 μL riboflavin (0.12 mM), 100 μL NBT (1.5 mM) and various concentrations (1-10 μg/mL) of the extract and add Phosphate buffer made up to 3 mL. The tubes containing the reaction mixture were uniformly illuminated with an incandescent lamp for 15 minutes. The absorbance was measured at 530 nm before and after the illumination. Percent inhibition of superoxide radical was calculated using the equation: […] Mix well and this was given to five volunteer for sensory evaluation. The sample was first de-oiled and its antioxidant level was check using DPPH, ABTS, & SOD method comparing with plain potato chips.

Experiment [3] can be described thus: Hydroxyl radical scavenging activity. Format: biochemical. As to the method:
Hydroxyl radical scavenging activity of the extract was measured by following the method of Elizabeth and Rao, (1990). Briefly, 1 mg/mL spice extract stock solution was prepared in distilled water and mixed with the reaction mixture containing deoxyribose (2.8 mM), ferric chloride (0.1 mM) EDTA (0.1 mM), H2O2 (1 mM), ascorbate (0.1 mM), and KH2PO4—KOH (20 mM, pH 7.4) at various concentrations (1-10 μg/mL) to a total volume of 1 mL and incubated for 1 hr at 37° C. Absorbance of each solution was measured at 530 nm using a UV/VIS spectrophotometer against the distilled water as reference. From the absorbance of the control and test solution, percentage inhibition was calculated.

In a further experiment the test system is rat liver homogenate. Briefly: Lipid peroxidation assay. Format: biochemical. How it is done:
The level of lipid peroxidation was measured by the method of Ohkawa et al (1979). Briefly, 1 mg/mL spice extract stock solution was prepared in distilled water. Various concentrations (1-10 μg/mL) of extract were incubated with 0.1 mL rat liver homogenate (25%) containing 30 mM KCl, Tris-HCl buffer (0.04 M, pH 7.0), ascorbic acid (0.06 mM) and ferrous ion (0.16 mM) in a total volume 0.5 mL for 1 hr. After incubation, 0.4 mL of reaction mixture was treated with 0.2 mL SDS (8.1%), 1.5 mL TBA (0.8%) and 1.5 mL acetic acid (20%, pH 3.5) distilled water were kept for 1 hr in a boiling water bath at 100° C. […] Absorbance of the clear supernatant was measured at 532 nm against pyridine:butanol. Percent inhibition of lipid peroxidation was calculated using the equation: […]

The nature of the next experiment: DPPH assay. It is filed as biochemical. As to the method:
Briefly, various concentrations of the extract were added to 1 mL of freshly prepared DPPH solution in methanol. The reaction mixture was made up to 2 mL with methanol; incubated for 20 minutes; read at 515 nm against methanol as reference. The percentage inhibition was calculated and concentration needed for 50% inhibition was found out. […] Mix well and this was given to five volunteer for sensory evaluation. The sample was first de-oiled and its antioxidant level was check using DPPH, ABTS, & SOD method comparing with plain potato chips.
A general note: DPPH is a stable violet radical that fades when it is reduced.

A further experiment is described as follows: ABTS assay. It is filed as biochemical. As to the method: Keep ABTS solution at Room temperature for 16 hours, and then store it at 4° C. (if not use). Take 500 μL, ABTS solution and add 50 mL PBS; adjust the OD to 0.7-0.8 against PBS as reference at 734 nm. Take 1 mL ABTS solution with different varies concentration of the extracts (1 mg/mL spice extract stock solution was prepared in distilled water) and made up to 2 mL with PBS. Keep the sample at room temperature for 6 minutes. The absorbance was measured at 734 nm. The results were calculated from the slopes of reaction curves obtained by plotting the absorbance Vs time. […] Mix well and this was given to five volunteer for sensory evaluation. The sample was first de-oiled and its antioxidant level was check using DPPH, ABTS, & SOD method comparing with plain potato chips.

Each structure is given as a SMILES string. Converted amounts (≈) assume the structure as drawn.

Turning to `O=C(O)Cc1ccccc1Nc1c(Cl)cccc1Cl` [diclofenac, Diclofenac], in experiment [1], the “inhibition of paw oedema” value worked out at 56.70%.

As to `O=C1O[C@H]([C@@H](O)CO)C(O)=C1O` [Vitamin C], the “IC50, superoxide radical anion scavenging” value in experiment [2] worked out at 1900 µg/mL (≈ 10800 µM). Also, in experiment [3], the “IC50, hydroxyl radical scavenging” value was 1550 µg/mL (≈ 8800 µM). In addition, the “IC50, lipid peroxidation” value in the experiment with rat liver homogenate was 375 µg/mL (≈ 2130 µM). Moreover, in the experiment “DPPH assay”, the “IC50, DPPH” value is 14 µg/mL (≈ 79.5 µM). In addition, the “IC50, ABTS” value in “ABTS assay” was found to be 2.25 µg/mL (≈ 12.8 µM).
